Laboratory results taken from PubChem BioAssay (NCI).
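Values below derive from 48-hour exposures of cells grown in 96-well plates, with endpoints linearly interpolated between the two concentrations bracketing the appropriate inhibition level. The concentration for 50% growth inhibition is given as GI50. The concentration for full growth arrest is given as TGI.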

Experiments:
Test in all cases: DTP human tumour cell line panel, 48 h
HCC-2998 colon = tested on: HCC-2998 colon
HL-60(TB) leukemia = tested on: HL-60(TB) leukemia
MDA-MB-435 = tested on: MDA-MB-435
RXF 393 renal = tested on: RXF 393 renal
SK-MEL-5 melanoma = tested on: SK-MEL-5 melanoma
DU-145 prostate = tested on: DU-145 prostate
MDA-MB-231 breast = tested on: MDA-MB-231 breast
SF-539 CNS = tested on: SF-539 CNS
UACC-62 melanoma = tested on: UACC-62 melanoma
HT29 colon = tested on: HT29 colon
NCI-H23 lung = tested on: NCI-H23 lung
OVCAR-3 ovarian = tested on: OVCAR-3 ovarian
ACHN renal = tested on: ACHN renal
U251 CNS = tested on: U251 CNS
786-0 renal = tested on: 786-0 renal
KM12 colon = tested on: KM12 colon
SK-MEL-28 melanoma = tested on: SK-MEL-28 melanoma
NCI-H460 lung = tested on: NCI-H460 lung
MCF7 breast = tested on: MCF7 breast
HOP-92 NSCLC = tested on: HOP-92 NSCLC
SW-620 colon = tested on: SW-620 colon
A498 renal = tested on: A498 renal
MOLT-4 leukemia = tested on: MOLT-4 leukemia
IGROV1 ovarian = tested on: IGROV1 ovarian
CAKI-1 renal = tested on: CAKI-1 renal
BT-549 breast = tested on: BT-549 breast
UACC-257 melanoma = tested on: UACC-257 melanoma
UO-31 renal = tested on: UO-31 renal
SF-268 CNS = tested on: SF-268 CNS
MALME-3M melanoma = tested on: MALME-3M melanoma
SF-295 CNS = tested on: SF-295 CNS
OVCAR-5 ovarian = tested on: OVCAR-5 ovarian
M14 melanoma = tested on: M14 melanoma
EKVX NSCLC = tested on: EKVX NSCLC
RPMI-8226 leukemia = tested on: RPMI-8226 leukemia
SK-OV-3 ovarian = tested on: SK-OV-3 ovarian
SR leukemia = tested on: SR leukemia
LOX IMVI melanoma = tested on: LOX IMVI melanoma
K-562 leukemia = tested on: K-562 leukemia
NCI-H522 lung = tested on: NCI-H522 lung
HS 578T breast = tested on: HS 578T breast
A549 NSCLC = tested on: A549 NSCLC
NCI-H226 lung = tested on: NCI-H226 lung
SN12C renal = tested on: SN12C renal
COLO 205 colon = tested on: COLO 205 colon
SK-MEL-2 melanoma = tested on: SK-MEL-2 melanoma
T-47D breast = tested on: T-47D breast
OVCAR-4 ovarian = tested on: OVCAR-4 ovarian
SNB-75 CNS = tested on: SNB-75 CNS
TK-10 renal = tested on: TK-10 renal
HCT-15 colon = tested on: HCT-15 colon

In the case of `CCN(CC)CCCN1C(=O)c2c(c(C)c3c(oc4ccc(O)cc43)c2C)C1=O`, the GI50 (HCC-2998 colon) is reported as 2.67 µM, the TGI (HCC-2998 colon) is reported as 7.39 µM and the GI50 (HL-60(TB) leukemia) is reported as 1.57 µM. For the same compound, the TGI (HL-60(TB) leukemia) was 3.43 µM, the GI50 (MDA-MB-435) was 1.84 µM and the TGI (MDA-MB-435) was 3.53 µM. It also gave a GI50 (RXF 393 renal) of 1.49 µM, a TGI (RXF 393 renal) of 2.97 µM and a GI50 (SK-MEL-5 melanoma) of 1.71 µM. It also gave a TGI (SK-MEL-5 melanoma) of 3.12 µM, a GI50 (DU-145 prostate) of 1.84 µM and a TGI (DU-145 prostate) of 3.29 µM. It also gave a GI50 (MDA-MB-231 breast) of 1.91 µM, a TGI (MDA-MB-231 breast) of 3.58 µM and a GI50 (SF-539 CNS) of 1.72 µM. It also gave a TGI (SF-539 CNS) of 3.11 µM, a GI50 (UACC-62 melanoma) of 16.1 µM and a TGI (UACC-62 melanoma) of 31.5 µM. For the same compound, the GI50 (HT29 colon) was 1.55 µM, the TGI (HT29 colon) was 3.02 µM and the GI50 (NCI-H23 lung) was 1.99 µM. The TGI (NCI-H23 lung) was 3.8 µM, the GI50 (OVCAR-3 ovarian) was 1.85 µM and the TGI (OVCAR-3 ovarian) was 3.42 µM. The GI50 (ACHN renal) was 1.62 µM, the TGI (ACHN renal) was 2.98 µM and the GI50 (U251 CNS) was 1.58 µM. For the same compound, the TGI (U251 CNS) was 2.98 µM, the GI50 (786-0 renal) was 1.74 µM and the TGI (786-0 renal) was 3.32 µM. It also gave a GI50 (KM12 colon) of 1.83 µM, a TGI (KM12 colon) of 3.55 µM and a GI50 (SK-MEL-28 melanoma) of 1.82 µM. For the same compound, the TGI (SK-MEL-28 melanoma) was 3.38 µM, the GI50 (NCI-H460 lung) was 1.83 µM and the TGI (NCI-H460 lung) was 3.47 µM. For the same compound, the GI50 (MCF7 breast) was 1.81 µM, the TGI (MCF7 breast) was 3.71 µM and the GI50 (HOP-92 NSCLC) was 1.33 µM. For the same compound, the TGI (HOP-92 NSCLC) was 2.81 µM, the GI50 (SW-620 colon) was 1.7 µM and the TGI (SW-620 colon) was 3.52 µM. For the same compound, the GI50 (A498 renal) was 12.6 µM, the TGI (A498 renal) was 27.2 µM and the GI50 (MOLT-4 leukemia) was 1.8 µM. It also gave a TGI (MOLT-4 leukemia) of 4.26 µM, a GI50 (IGROV1 ovarian) of 1.74 µM and a TGI (IGROV1 ovarian) of 3.31 µM. The GI50 (CAKI-1 renal) was 2.33 µM, the TGI (CAKI-1 renal) was 6.52 µM and the GI50 (BT-549 breast) was 1.75 µM. For the same compound, the TGI (BT-549 breast) was 3.26 µM, the GI50 (UACC-257 melanoma) was 1.88 µM and the TGI (UACC-257 melanoma) was 3.92 µM. For the same compound, the GI50 (UO-31 renal) was 1.58 µM, the TGI (UO-31 renal) was 3.01 µM and the GI50 (SF-268 CNS) was 1.69 µM. It also gave a TGI (SF-268 CNS) of 3.43 µM, a GI50 (MALME-3M melanoma) of 1.73 µM and a TGI (MALME-3M melanoma) of 3.25 µM. The GI50 (SF-295 CNS) was 1.82 µM, the TGI (SF-295 CNS) was 3.26 µM and the GI50 (OVCAR-5 ovarian) was 1.7 µM. It also gave a TGI (OVCAR-5 ovarian) of 3.13 µM, a GI50 (M14 melanoma) of 1.76 µM and a TGI (M14 melanoma) of 3.2 µM. It also gave a GI50 (EKVX NSCLC) of 1.69 µM, a TGI (EKVX NSCLC) of 3.27 µM and a GI50 (RPMI-8226 leukemia) of 1.85 µM. The TGI (RPMI-8226 leukemia) was 4.28 µM, the GI50 (SK-OV-3 ovarian) was 1.7 µM and the TGI (SK-OV-3 ovarian) was 3.1 µM. For the same compound, the GI50 (SR leukemia) was 0.765 µM, the TGI (SR leukemia) was 2.78 µM and the GI50 (LOX IMVI melanoma) was 1.79 µM. For the same compound, the TGI (LOX IMVI melanoma) was 3.32 µM, the GI50 (K-562 leukemia) was 1.71 µM and the TGI (K-562 leukemia) was 3.77 µM. It also gave a GI50 (NCI-H522 lung) of 1.84 µM, a TGI (NCI-H522 lung) of 3.75 µM and a GI50 (HS 578T breast) of 2.15 µM. The TGI (HS 578T breast) was 5.31 µM, the GI50 (A549 NSCLC) was 1.65 µM and the TGI (A549 NSCLC) was 3.23 µM. It also gave a GI50 (NCI-H226 lung) of 1.93 µM, a TGI (NCI-H226 lung) of 4.27 µM and a GI50 (SN12C renal) of 1.78 µM. The TGI (SN12C renal) was 3.36 µM, the GI50 (COLO 205 colon) was 2.64 µM and the TGI (COLO 205 colon) was 10.8 µM. It also gave a GI50 (SK-MEL-2 melanoma) of 17 µM, a TGI (SK-MEL-2 melanoma) of 35.9 µM and a GI50 (T-47D breast) of 2.17 µM. The TGI (T-47D breast) was 5.33 µM, the GI50 (OVCAR-4 ovarian) was 1.93 µM and the TGI (OVCAR-4 ovarian) was 3.68 µM. For the same compound, the GI50 (SNB-75 CNS) was 1.59 µM, the TGI (SNB-75 CNS) was 2.98 µM and the GI50 (TK-10 renal) was 1.84 µM. It also gave a TGI (TK-10 renal) of 3.35 µM, a GI50 (HCT-15 colon) of 1.68 µM and a TGI (HCT-15 colon) of 3.22 µM.
